Measured values published in patent US9113629B2, “4-amino-6-(4-substituted-phenyl)-picolinates and 6-amino-2-(4-substituted-phenyl)-pyrimidine-4-carboxylates and their use as herbicides” (DOW AGROSCIENCES LLC, priority 2013, dated 2015).
Where two headings read alike, the source gives them in different places.

How the values were obtained:
[1] = system: Key Broadleaf Weed and Crop Species; experiment: Post-emergent Test II herbicidal activity (Table 5); format: in vivo; settings: post-emergence, 336 h, 14 days after application; for pest or weed control at 70 g/ha: application rate 70 g ai/ha; for pest or weed control at 140 g/ha: application rate 140 g ai/ha
In short: (§1)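 Compounds, dissolved in 97:3 acetone/DMSO and diluted into an aqueous carrier containing crop oil concentrate and Triton X-155, are applied over the top of young plants at 187 L/ha. Injury is scored visually at 14 d, 0% meaning no effect and 100% complete kill.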

[2] = system: Key Grass and Sedge Weeds as well as Grass Crops; experiment: Post-emergent Test II herbicidal activity (Table 6); format: in vivo; settings: post-emergence, 336 h; for pest or weed control at 70 g/ha: 70 g ai/ha; for pest or weed control at 140 g/ha: 140 g ai/ha
In short: as §1

[3] = ABUTH: velvetleaf (Abutilon theophrasti), read-out: Visual Growth Reduction (%) 14 Days After Application, ABUTH
[4] = AMARE: redroot pigweed (Amaranthus retroflexus), read-out: Visual Growth Reduction (%) 14 Days After Application, AMARE
[5] = BRSNN: oilseed-rape, canola (Brassica napus), read-out: Visual Growth Reduction (%) 14 Days After Application, BRSNN
[6] = CHEAL: lambsquarters (Chenopodium album), read-out: Visual Growth Reduction (%) 14 Days After Application, CHEAL
[7] = EPHHL: wild poinsettia (Euphorbia heterophylla), read-out: Visual Growth Reduction (%) 14 Days After Application, EPHHL
[8] = HELAN: sunflower (Helianthus annuus), read-out: Visual Growth Reduction (%) 14 Days After Application, HELAN
[9] = VIOTR: wild pansy (Viola tricolor), read-out: Visual Growth Reduction (%) 14 Days After Application, VIOTR
[10] = CYPES: yellow nutsedge (Cyperus esculentus), read-out: Visual Growth Reduction (%) 14 Days After Application, CYPES
[11] = DIGSA: crabgrass (Digitaria sanguinalis), read-out: Visual Growth Reduction (%) 14 Days After Application, DIGSA
[12] = ECHCG: barnyardgrass (Echinochloa crus-galli), read-out: Visual Growth Reduction (%) 14 Days After Application, ECHCG
[13] = ORYSA: rice (Oryza sativa), crop, read-out: Visual Growth Reduction (%) 14 Days After Application, ORYSA
[14] = SETFA: giant foxtail (Setaria faberi), read-out: Visual Growth Reduction (%) 14 Days After Application, SETFA
[15] = SORVU: grain sorghum (Sorghum vulgare), read-out: Visual Growth Reduction (%) 14 Days After Application, SORVU
[16] = TRZSS (wheat, Triticum aestivum), crop, read-out: Visual Growth Reduction (%) 14 Days After Application, TRZSS
[17] = ZEAMX: maize, corn (Zea mays), crop, read-out: Visual Growth Reduction (%) 14 Days After Application, ZEAMX

`COC(=O)c1nc(-c2ccc(I)cc2)cc(N)c1Cl` [Compound 158] showed a pest or weed control at 70 g/ha [1, 3] of 95 to 100%, a pest or weed control at 140 g/ha [1, 3] of 95 to 100% and a pest or weed control at 70 g/ha [1, 4] of 95 to 100%. The pest or weed control at 140 g/ha [1, 4] was 95 to 100%, the pest or weed control at 70 g/ha [1, 5] was 60 to 74% and the pest or weed control at 140 g/ha [1, 5] was 75 to 84%. It also gave a pest or weed control at 70 g/ha [1, 6] of 95 to 100%, a pest or weed control at 140 g/ha [1, 6] of 95 to 100% and a pest or weed control at 70 g/ha [1, 7] of 95 to 100%. It also gave a pest or weed control at 140 g/ha [1, 7] of 95 to 100%, a pest or weed control at 70 g/ha [1, 8] of 75 to 84% and a pest or weed control at 140 g/ha [1, 8] of 75 to 84%. For the same compound, the pest or weed control at 70 g/ha [1, 9] was 0 to 29%, the pest or weed control at 140 g/ha [1, 9] was 0 to 29% and the pest or weed control at 70 g/ha [2, 10] was 45 to 59%. The pest or weed control at 140 g/ha [2, 10] was 45 to 59%, the pest or weed control at 70 g/ha [2, 11] was 60 to 74% and the pest or weed control at 140 g/ha [2, 11] was 60 to 74%. It also gave a pest or weed control at 70 g/ha [2, 12] of 60 to 74%, a pest or weed control at 140 g/ha [2, 12] of 75 to 84% and a pest or weed control at 70 g/ha [2, 13] of 0 to 29%. It also gave a pest or weed control at 140 g/ha [2, 13] of 0 to 29%, a pest or weed control at 70 g/ha [2, 14] of 0 to 29% and a pest or weed control at 140 g/ha [2, 14] of 0 to 29%. It also gave a pest or weed control at 70 g/ha [2, 15] of 85 to 94%, a pest or weed control at 140 g/ha [2, 15] of 85 to 94% and a pest or weed control at 70 g/ha [2, 16] of 0 to 29%. For the same compound, the pest or weed control at 140 g/ha [2, 16] was 45 to 59%, the pest or weed control at 70 g/ha [2, 17] was 0 to 29% and the pest or weed control at 140 g/ha [2, 17] was 0 to 29%.
